Results taken from paper PMC8291137 (ACS Medicinal Chemistry Letters, 2021).

Legend:
[1] = Shake-flask aqueous solubility in Britton-Robinson buffer

## Cn1cc(-c2cc(-c3cc(Cl)cc(OCc4scnc4C(F)(F)F)c3)c(=O)n(-c3cccnc3)c2)c(=O)[nH]c1=O [Compound 21]
Vero E6 cells
  cytotoxicity (in words): no cytotoxicity
[1]
  aqueous solubility (in words): good aqueous solubility
